Results from publication PMC314469, “Protein Interaction Networks by Proteome Peptide Scanning” (PLoS Biology, 2004).
No end group written: not given here.

Columns and labels:
Type in all cases: binding
[1] = target: T1, Rvs167 SH3 domain (GST-fused) (Saccharomyces cerevisiae, UniProt P39743); assay: Surface plasmon resonance (BIAcoreX) dissociation constants of peptides, Rvs167 SH3 domain; settings: Figure 4A; SPR BIAcoreX, GST-SH3 coupled to CM5 chip, GST control; peptides in 10 mM HEPES, 150 mM NaCl, 3.4 mM EDTA, 0.005% P20, pH 7.4, 25°C; steady-state model; read-out: dissociation constant, SH3 DOMAINS RVS167
T1 construct: Experiments were carried out on sensor chips with GST-fused SH3 domains and GST as a control; made in house
Experimental: (§1) Figure 4 Measurement of Dissociation Constants and Correlation with SPOT Intensities (A) Dissociation constants were measured with a BIAcoreX instrument as described in the Materials and Methods. The experiments with the Abp1 SH3 domain were carried out in triplicate. (B) Normalized BLU intensities plotted as a function of the log of the dissociation constant.
(§2) Surface plasmon resonance measurements were carried out with a BIAcoreX instrument (BIAcore, Uppsala, Sweden). Experiments were carried out on sensor chips with GST-fused SH3 domains and GST as a control. […] Interaction analysis was performed at 25°C with the peptides dissolved in 10 mM HEPES, 150 mM NaCl, 3.4 mM EDTA, and 0.005% surfactant P20 (pH 7.4), at 15 μl/min flow rate, using six to seven dilutions, ranging from 500 μM to 65 nM. Dissociation constant values were evaluated by applying the steady-state model using BIAcore evalution 3.1 software.

[2] = target: T2, Yfr024c SH3 domain (GST-fused) (Saccharomyces cerevisiae, UniProt P43603); assay: Surface plasmon resonance (BIAcoreX) dissociation constants of peptides, Yfr024c SH3 domain; settings: Figure 4A; SPR BIAcoreX, GST-SH3 coupled to CM5 chip, GST control; peptides in 10 mM HEPES, 150 mM NaCl, 3.4 mM EDTA, 0.005% P20, pH 7.4, 25°C; steady-state model; read-out: dissociation constant, SH3 DOMAINS YFR024C
T2 construct: Experiments were carried out on sensor chips with GST-fused SH3 domains and GST as a control; made in house
T2 sequence (P43603 400-459 limits assumed): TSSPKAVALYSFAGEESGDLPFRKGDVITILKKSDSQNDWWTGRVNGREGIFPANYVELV
Experimental: as §1, §2

[3] = target: T3, Ysc84 SH3 domain (GST-fused) (Saccharomyces cerevisiae, UniProt P32793); assay: Surface plasmon resonance (BIAcoreX) dissociation constants of peptides, Ysc84 SH3 domain; settings: Figure 4A; SPR BIAcoreX, GST-SH3 coupled to CM5 chip, GST control; peptides in 10 mM HEPES, 150 mM NaCl, 3.4 mM EDTA, 0.005% P20, pH 7.4, 25°C; steady-state model; read-out: dissociation constant, SH3 DOMAINS YSC84
T3 construct: Experiments were carried out on sensor chips with GST-fused SH3 domains and GST as a control; made in house
T3 sequence (P32793 409-468 limits assumed): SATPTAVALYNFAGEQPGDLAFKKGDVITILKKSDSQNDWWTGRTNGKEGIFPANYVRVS
Experimental: as §1, §2

[4] = target: T4, Boi2 SH3 domain (GST-fused) (Saccharomyces cerevisiae, UniProt P39969); assay: Surface plasmon resonance (BIAcoreX) dissociation constants of peptides, Boi2 SH3 domain; settings: Figure 4A; SPR BIAcoreX, GST-SH3 coupled to CM5 chip, GST control; peptides in 10 mM HEPES, 150 mM NaCl, 3.4 mM EDTA, 0.005% P20, pH 7.4, 25°C; steady-state model; read-out: dissociation constant, SH3 DOMAINS BOI2
T4 construct: Experiments were carried out on sensor chips with GST-fused SH3 domains and GST as a control; made in house
T4 sequence (P39969 43-107 limits assumed): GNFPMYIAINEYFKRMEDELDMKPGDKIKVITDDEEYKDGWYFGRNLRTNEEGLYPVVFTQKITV
Experimental: as §1, §2

T1 sequence (P39743 421-482 limits assumed): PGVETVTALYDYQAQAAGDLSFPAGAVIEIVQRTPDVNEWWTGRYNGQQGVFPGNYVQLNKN

Row | Sequence | Kd [1] [µM] | Kd [2] [µM] | Kd [3] [µM] | Kd [4] [µM]
1 | SSPPPLPTRRDHIK [YPR171 SSPPPLPTRRDHIK] | 16 | 4.8 | 3.3 | > 100
2 | RGPPPLPPRANVQP [ACF2 RGPPPLPPRANVQP] | – | 1.3 | 1.6 | > 100
3 | RPKRRAPPPVPKKP [YIR003 RPKRRAPPPVPKKP] | 13 | – | – | –
4 | GKDKSRPPRPPPKP [PK1 GKDKSRPPRPPPKP] | > 100 | – | – | –
5 | PQQNRPLPQLPNRN [LAS17 PQQNRPLPQLPNRN] | 32 | 19 | 27 | > 100
6 | DIKTRSVPKIPSIE [DEM1 DIKTRSVPKIPSIE] | > 100 | > 100 | > 100 | > 100
7 | NAPERAVPILPPRN [YBR108W NAPERAVPILPPRN] | 56 | 4.2 | 13 | > 100
8 | GTTNRGPPPLPPRA [ACF2 GTTNRGPPPLPPRA] | 6.3 | 1.7 | 1.1 | > 100

More lines, in order of falling Kd [1], values ahead:

Row | Kd [1] [µM] | Kd [2] [µM] | Kd [3] [µM] | Kd [4] [µM] | Sequence
9 | 39 | 14 | 13 | > 100 | RAVPILPPRNNVEP [YBR108W RAVPILPPRNNVEP]
10 | 39 | 22 | 16 | > 100 | NIQPDLPPRKIMIP [YBR239C NIQPDLPPRKIMIP]
11 | 30 | 8.9 | 9.6 | > 100 | RPLPQLPNRNNRPV [LAS17 RPLPQLPNRNNRPV]
12 | 28 | 11 | 9.1 | > 100 | STPPTLPPRRIEDP [YMR192 STPPTLPPRRIEDP]
13 | 16 | 3.5 | 5 | > 100 | SGPPLLPPRNTMKN [YJR083C SGPPLLPPRNTMKN]
